# According to patent publication US20250129088A1, “CEREBLON E3 UBIQUITIN LIGASE INHIBITOR” (Gan & Lee Pharmaceuticals Co., Ltd., priority 2022, published 2025):
# Experiments:
# Format in all cases: cell-based
# K562 cells = assay: K562 cell proliferation inhibition, CCK-8; details: Homo sapiens, 96 h, K562, 4 days, Table 12, positive control dBET6
# Method: The complete medium required for K562 cells is IMDM (ATCC, Product number: 30-2005) basal medium containing 10% fetal bovine serum. K562 cells were seeded in a 96-well plate at a density of 7,500 cells/well, and different concentrations of the compound of the present invention and positive control samples Alisertib (source: Bide Pharmaceuticals) and dBET6 (source: Bide Pharmaceuticals) were prepared to treat the cells. The cells were incubated at a 37° C., 5% CO2 cell culture incubator for 4 days.
# Cell viability was detected using the CCK-8 kit (Beyotime, Product number: C0040) according to the manufacturer's instructions. According to the inhibition rate, GraphPad Prism software was used to calculate the IC50 value of each compound for 4 days, and the results are shown in Table 11-12.
# VCaP cells = assay: VCaP cell proliferation inhibition, CCK-8; details: Homo sapiens, 168 h, 7 days
# Source text: The complete medium required for VCaP cells is DMEM high glucose (Gibco, Product number: 11995-065) basal medium containing 10% fetal bovine serum. […] Cell viability was detected using the CCK-8 kit (Beyotime, Product number: C0040) according to the manufacturer's instructions.
# LNCaP FGC cells = assay: LNCaP FGC cell proliferation inhibition, CCK-8; details: Homo sapiens, 96 h, 4 days
# Source text: The complete medium required for LNCaP FGC cells is RPMI 1640 (ATCC, Product number: 30-2001) basal medium containing 10% fetal calf serum. […] Cell viability was detected using the CCK-8 kit (Beyotime, Product number: C0040) according to the manufacturer's instructions.
IC50 (K562 cells),Compound,IC50 (VCaP cells),IC50 (LNCaP FGC cells)
0.066 µM,"Cc1nc(Nc2ncc(C(=O)Nc3c(C)cccc3Cl)s2)cc(N2CCN(CCOCCC(=O)N3CC4(CCc5cc6c(cc5O4)C(=O)N(C4CCC(=O)NC4=O)C6=O)C3)CC2)n1 (centres unmarked) [PROTAC 11, N-(2-chloro-6-methylphenyl)-2-((6-(4-(2-(3-(7′-(2,6-dioxopiperidin-3-yl)-6′,8′-dioxo-4′,6′,7′,8′-tetrahydro-3′H-spiro[azetidine-3,2′-pyrano[2,3-f]isoindol]-1-yl)-3-oxopropoxy)ethyl)piperazin-1-yl)-2-methylpyrimidin-4-yl)amino)thiazole-5-carboxamide]",,
0.02 µM,"Cc1nc(Nc2ncc(C(=O)Nc3c(C)cccc3Cl)s2)cc(N2CCN(CCOCCC(=O)N3CCC4(CCc5cc6c(cc5O4)C(=O)N(C4CCC(=O)NC4=O)C6)CC3)CC2)n1 (centres unmarked) [PROTAC 13, N-(2-chloro-6-methylphenyl)-2-((6-(4-(2-(3-(7′-(2,6-dioxopiperidin-3-yl)-8′-oxo-4′,6′,7′,8′-tetrahydro-3′H-spiro[piperidine-4,2′-pyrano[2,3-f]isoindole]-1-yl)-3-oxopropoxy)ethyl)piperazin-1-yl)-2-methylpyrimidin-4-yl)amino)thiazole-5-carboxamide]",,
0.057 µM,"Cc1nc(Nc2ncc(C(=O)Nc3c(C)cccc3Cl)s2)cc(N2CCN(CCOCCC(=O)N3CC4(CCc5cc6c(cc5O4)C(=O)N(C4CCC(=O)NC4=O)C6)C3)CC2)n1 (centres unmarked) [PROTAC 14, N-(2-chloro-6-methylphenyl)-2-((6-(4-(2-(3-(7′-(2,6-dioxopiperidin-3-yl)-8′-oxo-4′,6′,7′,8′-tetrahydro-3′H-spiro[azetidine-3,2′-pyrano[2,3-f]isoindol]-1-yl)-3-oxopropoxy)ethyl)piperazin-1-yl)-2-methylpyrimidin-4-yl)amino)thiazole-5-carboxamide]",,
,"CC1(C)C(=O)N(c2ccc(C#N)c(C(F)(F)F)c2)C(=S)N1c1ccc(C(=O)N2CC[C@@H](CN3CCC4(CC3)COc3cc5c(cc3C4)C(=O)N(C3CCC(=O)NC3=O)C5=O)C2)c(F)c1 (stereo partly drawn) [PROTAC 70, 4-(3-(4-((3S)-3-((7′-(2,6-dioxopiperidin-3-yl)-6′,8′-dioxo-4′,6′,7′,8′-tetrahydro-2′H-spiro[piperidine-4,3′-pyrano[2,3-f]isoindole]-1-yl)methyl)pyrrolidine-1-carbonyl)-3-fluorophenyl)-4,4-dimethyl-5-oxo-2-thioimidazolidin-1-yl)-2-(trifluoromethyl)benzonitrile]",9.73 µM,7.06 µM
,CC1(C)C(=O)N(c2ccc(C#N)c(C(F)(F)F)c2)C(=S)N1c1ccc(C(=O)N2CCC(CN3CCC4(CCc5cc6c(cc5O4)CN(C4CCC(=O)NC4=O)C6=O)CC3)CC2)c(F)c1 (centres unmarked) [PROTAC 72],7.4 µM,5.34 µM
,"CC1(C)C(=O)N(c2ccc(C#N)c(C(F)(F)F)c2)C(=S)N1c1ccc(C(=O)N2CC3(CCC(N4CCC5(CC4)COc4cc6c(cc4C5)C(=O)N(C4CCC(=O)NC4=O)C6=O)CC3)C2)c(F)c1 (centres unmarked) [PROTAC 73, 4-(3-(4-(7-(7′-(2,6-dioxopiperidin-3-yl)-6′,8′-dioxo-4′,6′,7′,8′-tetrahydro-2′H-spiro[piperidin-4,3′-pyrano[2,3-f]isoindol]-1-yl)-2-azaspiro[3.5]nonane-2-carbonyl)-3-fluorophenyl)-4,4-dimethyl-5-oxo-2-thioimidazolidin-1-yl)-2-(trifluoromethyl)benzonitrile]",2.49 µM,4.53 µM
,"CC1(C)C(=O)N(c2ccc(C#N)c(C(F)(F)F)c2)C(=S)N1c1ccc(C(=O)N2CCC3(CCC(N4CCC5(CC4)COc4cc6c(cc4C5)C(=O)N(C4CCC(=O)NC4=O)C6=O)CC3)C2)c(F)c1 (centres unmarked) [PROTAC 74, 4-(3-(4-(8-(7′-(2,6-dioxopiperidin-3-yl)-6′ 8′-dioxo-4′,6′,7′,8′-tetrahydro-2′H-spiro[piperidin-4,3′-pyrano[2,3-f]isoindol]-1-yl)-2-azaspiro[4.5]decane-2-carbonyl)-3-fluorophenyl)-4,4-dimethyl-5-oxo-2-thioimidazolidin-1-yl)-2-(trifluoromethyl)benzonitrile]",3.26 µM,2.66 µM
,COC1(CN2CC3(COc4cc5c(cc4C3)C(=O)N(C3CCC(=O)NC3=O)C5=O)C2)CCN(C(=O)c2ccc(N3C(=S)N(c4ccc(C#N)c(C(F)(F)F)c4)C(=O)C3(C)C)cc2F)CC1 (centres unmarked) [PROTAC 75],0.17 µM,0.53 µM
,COC1(CN2CC3(CCc4cc5c(cc4O3)CN(C3CCC(=O)NC3=O)C5=O)C2)CCN(C(=O)c2ccc(N3C(=S)N(c4ccc(C#N)c(C(F)(F)F)c4)C(=O)C3(C)C)cc2F)CC1 (centres unmarked) [PROTAC 76],0.35 µM,3.24 µM
,"CC1(C)C(=O)N(c2ccc(C#N)c(C(F)(F)F)c2)C(=S)N1c1ccc(C(=O)N2CC(N3CC4(CCc5cc6c(cc5O4)C(=O)N(C4CCC(=O)NC4=O)C6=O)C3)C2)c(F)c1 (centres unmarked) [PROTAC 77, 4-(3-(4-(3-(7′-(2,6-dioxopiperidin-3-yl)-6′,8′-dioxo-4′,6′,7′,8′-tetrahydro-3′H-spiro [azetidine-3,2′-pyrano[2,3-f]isoindole]-1-yl)azetidine-1-carbonyl)-3-fluorophenyl)-4,4-dimethyl-5-oxo-2-thioimidazolidin-1-yl)-2-(trifluoromethyl)benzonitrile]",2.03 µM,6.45 µM
,"CC1(C)C(=O)N(c2ccc(C#N)c(C(F)(F)F)c2)C(=S)N1c1ccc(C(=O)N2CCC(N3CCC4(CC3)COc3cc5c(cc34)C(=O)N(C3CCC(=O)NC3=O)C5=O)CC2)c(F)c1 (centres unmarked) [PROTAC 80, 4-(3-(4-(4-(6-(2,6-dioxopiperidin-3-yl)-5,7-dioxo-6,7-dihydro-2H,5H-spiro[furo[2,3-f]isoindole-3,4′-piperidin]-1′-yl)piperidine-1-carbonyl)-3-fluorophenyl)-4,4-dimethyl-5-oxo-2-thioimidazolidin-1-yl)-2-(trifluoromethyl)benzonitrile]",9.48 µM,3.24 µM
,"CC1(C)C(=O)N(c2ccc(C#N)c(C(F)(F)F)c2)C(=S)N1c1ccc(C(=O)N2CCC3(CCC(N4CCC5(CCc6cc7c(cc6O5)C(=O)N(C5CCC(=O)NC5=O)C7=O)CC4)CC3)CC2)c(F)c1 (centres unmarked) [PROTAC 83, 4-(3-(4-(9-(7′-(2,6-dioxopiperidin-3-yl)-6′,8′-dioxo-4′,6′,7′,8′-tetrahydro-3′H-spiro[piperidine-4,2′-pyrano[2,3-f]isoindol]-1-yl)-3-azaspiro[5.5]undecane-3-carbonyl)-3-fluorophenyl)-4,4-dimethyl-5-oxo-2-thioimidazolidin-1-yl)-2-(trifluoromethyl)benzonitrile]",0.89 µM,2.63 µM
,"CC1(C)C(=O)N(c2ccc(C#N)c(C(F)(F)F)c2)C(=S)N1c1ccc(C(=O)N2CC3(CC(N4CCC5(CCc6cc7c(cc6O5)C(=O)N(C5CCC(=O)NC5=O)C7=O)CC4)C3)C2)c(F)c1 (centres unmarked) [PROTAC 85, 4-(3-(4-(6-(7′-(2,6-dioxopiperidin-3-yl)-6′,8′-dioxo-4′,6′,7′,8′-tetrahydro-3′H-spiro[piperidin-4,2′-pyrano[2,3-f]isoindol]-1-yl)-2-azaspiro[3.3]heptane-2-carbonyl)-3-fluorophenyl)-4,4-dimethyl-5-oxo-2-thioimidazolidin-1-yl)-2-(trifluoromethyl)benzonitrile]",0.62 µM,27.9 µM
